The nature of experiment [1]: Chelation of zinc (II) ion by tetramethylmurexide reagent. Format: physicochemical. As to conditions: hexamine/HCl buffer pH 5.0, mean ± SD. As to the method: Therefore, this extract was selected to study its chelation ability with zinc (II) ion. […]. Based on this standard curve, the amount of metal ions bound by the compound tested was evaluated. […].
Briefly, 0.01 M hexamine/HCl buffer was prepared at pH 5.0 with addition of 0.01 M KCl. Stock solution of captopril. […] A series of working sample solutions were prepared by diluting the stock solutions with hexamine/HCl buffer (0–5 mg/mL). ZnCl2 was prepared in the same buffer at concentration of 0.8 mM. Then, 1 mL of sample solutions was mixed with 1 mL ZnCl2 solution and 0.1 mL tetramethylmurexide at concentration of 1 mM. Absorbance was recorded at 462 nm and 530 nm and then the ratio of A462/A530 was calculated. Distilled deionized water was used instead of tetramethylmurexide reagent in control samples. A standard curve of absorbance ratio versus metal ions concentrations (0 to 3.2 mM) was prepared and the percentage of bound metal ions was calculated. Percentage of bond with Zn^2+ = 1 − (Concentration of free Zn^2+/Concentration of total Zn^2+) × 100(4)

Experiment [2] deals with T1, ACE enzyme (from rabbit lung) (Oryctolagus cuniculus, UniProt P12822).
T1 sequence (P12822 34-1310): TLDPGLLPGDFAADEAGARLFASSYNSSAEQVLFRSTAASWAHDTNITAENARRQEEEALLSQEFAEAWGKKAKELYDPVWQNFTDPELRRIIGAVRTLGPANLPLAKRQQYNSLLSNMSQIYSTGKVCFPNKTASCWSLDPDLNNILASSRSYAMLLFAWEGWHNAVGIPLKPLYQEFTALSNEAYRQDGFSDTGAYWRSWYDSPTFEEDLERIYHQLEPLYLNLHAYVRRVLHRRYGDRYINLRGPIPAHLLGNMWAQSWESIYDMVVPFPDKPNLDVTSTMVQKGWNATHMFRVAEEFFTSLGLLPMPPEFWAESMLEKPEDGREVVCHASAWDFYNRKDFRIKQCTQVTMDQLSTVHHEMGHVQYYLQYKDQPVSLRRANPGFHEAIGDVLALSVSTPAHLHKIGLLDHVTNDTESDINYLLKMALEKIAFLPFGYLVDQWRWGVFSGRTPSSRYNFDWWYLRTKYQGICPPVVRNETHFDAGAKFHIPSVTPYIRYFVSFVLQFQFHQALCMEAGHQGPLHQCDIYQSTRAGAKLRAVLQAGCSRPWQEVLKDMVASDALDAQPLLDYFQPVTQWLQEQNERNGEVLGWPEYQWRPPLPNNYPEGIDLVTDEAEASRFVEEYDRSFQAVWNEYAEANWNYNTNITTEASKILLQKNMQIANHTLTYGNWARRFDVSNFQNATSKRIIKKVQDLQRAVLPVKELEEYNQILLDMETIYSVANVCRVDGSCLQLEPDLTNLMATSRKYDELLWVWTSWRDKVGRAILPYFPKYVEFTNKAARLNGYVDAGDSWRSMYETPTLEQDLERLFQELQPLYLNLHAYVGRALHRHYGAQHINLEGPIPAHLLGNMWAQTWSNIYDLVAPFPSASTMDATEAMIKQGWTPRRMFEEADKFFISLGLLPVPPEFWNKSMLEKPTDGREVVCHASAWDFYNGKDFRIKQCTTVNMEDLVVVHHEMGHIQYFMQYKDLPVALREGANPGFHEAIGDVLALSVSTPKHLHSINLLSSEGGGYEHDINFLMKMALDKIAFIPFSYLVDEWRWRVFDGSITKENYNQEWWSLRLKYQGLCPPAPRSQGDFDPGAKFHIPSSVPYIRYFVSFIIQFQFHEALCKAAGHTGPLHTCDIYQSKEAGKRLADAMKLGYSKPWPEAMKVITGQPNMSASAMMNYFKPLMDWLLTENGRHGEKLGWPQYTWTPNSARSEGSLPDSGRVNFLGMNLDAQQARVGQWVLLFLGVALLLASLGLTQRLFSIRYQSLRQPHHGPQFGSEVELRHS
As to the kind of experiment: In vitro ACE inhibition activity (HA formation from HHL, HPLC-UV).
Description: This method relies on determining hippuric acid (HA) formation from ACE-specific substrate hippuryl-histidyl-leucine (HHL) by the action of ACE enzyme, resulting in the removal of C-terminal dipeptide histidylleucine.
The high performance liquid chromatography (HPLC) was performed using an Agilent Technologies (Series 1200 infinity, Frankfurt, Germany) system. Separations were accomplished on a Zorbax Eclipse plus phenyl-hexyl (4.6 mm × 250 mm, 5 µm, Agilent) and the column temperature was maintained at 30 °C. Substrates of HA and HHL were detected at 228 nm. The flow rate was set at 0.6 mL/min and injection volume was 10 μL. The mobile phase consisted of 20% acetonitrile and 80% of 0.1% ammonium dihydrogen phosphate buffer was used in this analysis with 10 min separation time.
For substrate HHL hydrolysis catalyzed by purified rabbit ACE enzyme, the total reaction volume was 200 µL. Phosphate buffer (pH 8.3) was used to dilute the substrate HHL and rabbit lung ACE enzyme. […] The reaction mixtures were incubated for 2 h at 37 °C. The reaction was terminated by heating the samples at 100 °C in water bath, and then 800 µL of water was added to all samples, and they were analyzed by stated HPLC method.
HHL as substrate was prepared freshly in 10 mM phosphate buffer pH 8.3 and then sonicated for 30 min. […] Angiotensin converting enzyme (ACE) was prepared at 0.05 U/mL in phosphate buffer pH 8.3 containing 0.1% bovine serum albumin (BSA). Then, 50 µL of purified ACE enzyme and 20 µL extracts, reference compounds or captopril at different concentrations were added to 130 µL of HHL substrate. Control reaction mixture was contained 20 µL of 50% ethanol instead of extracts. All samples were incubated for 2 h at 37 °C. The reaction was stopped by heating the samples at 100 °C. All samples were analyzed by HPLC after adding 800 µL of water. ACE inhibition rate was calculated by the following equation: ACE inhibition activity of test substances (%) = [(HA concentration levels without test substances) − (HA concentration levels with test substances)/(HA concentration levels without test substances)] × 100 (3)

Several values for one entry are separate records, joined by “and”; a condition that tells them apart may be missing. Identical values can stand only once. Like-named read-outs stand apart in the source and are kept apart here.

As for `C[C@H](CS)C(=O)N1CCC[C@H]1C(=O)O` [Captopril, captopril], the “Zn (II) chelating activity (percentage of bound Zn (II))” value (“Zn … (percentage of bound Zn (II))” for short) in experiment [1] (at concentration of 4 mg/mL) was 100% ± 1.59%.
For the compound `COc1ccc(-c2cc(=O)c3c(OC)c(OC)c(OC)cc3o2)cc1OC` [SIN, sinensetin], in experiment [1] (at concentration of 5 mg/mL), the “Zn … (percentage of bound Zn (II))” value is given as 6.71% ± 0.62%. The compound further showed an IC50 in experiment [2] of 79.2 µM.
`COc1ccc(-c2cc(=O)c3c(OC)c(OC)c(OC)cc3o2)cc1O` [TMF, 3′-hydroxy-5,6,7,4′-tetramethoxyflavone]: in experiment [2], inhibition was half-maximal at 77.9 µM (IC50).
In turn, `O=C(/C=C/c1ccc(O)c(O)c1)O[C@H](Cc1ccc(O)c(O)c1)C(=O)O` [RA, rosmarinic acid] gave an IC50 in experiment [2] of 52.2 µM.
`COc1ccc(-c2cc(=O)c3c(O)c(OC)c(OC)cc3o2)cc1O` [EUP, eupatorin]: in experiment [1] (at concentration of 5 mg/mL), the “Zn … (percentage of bound Zn (II))” value is reported as 56.03% ± 1.26%. Moreover, the IC50 in experiment [2] (IC50 on in vitro ACE inhibitory assay, purified rabbit lung ACE, HHL substrate, 2 h at 37 °C, mean ± SD (n = 3)) was 44.6 µM and 44.7 µM.

The values above are taken from publication PMC6274529, “Flavonoids-Rich Orthosiphon stamineus Extract as New Candidate for Angiotensin I-Converting Enzyme Inhibition: A Molecular Docking Study” (Molecules, 2016).
